Reference: ChEMBL document CHEMBL5614419, “Discovery of novel BCL6-Targeting PROTACs with effective antitumor activities against DLBCL in vitro and in vivo” (Eur J Med Chem, 2024)
Calls of active or inactive are those of the source. No cut-off for these calls is given here.

Assays:
[1] = Half life in male Sprague-Dawley rat at 20 mg/kg, po measured upto 24 hrs by LC-MS/MS analysis; assay type: ADME, organism-based; details: in vivo
[2] = tested on: SUD4; experiment: Effect on BCL6 mRNA level in human SU-DHL-4 cells at 10 uM incubated for 48 hrs by RT-qPCR analysis; assay type: functional, cell-based
[3] = tested on: DOHH-2; experiment: Antiproliferative activity against BCL6-dependent human DOHH-2 cells assessed as inhibition in cell growth measured after 6 days by MTS assay; details: DOHH-2, 144 h
[4] = biological target: T1, Protein cereblon/B-cell lymphoma 6 protein (Homo sapiens, UniProt Q96SW2+P41182); experiment: PROTAC activity at CRBN/BCL6 in human SU-DHL-4 cells assessed as induction of BCL6 degradation by measuring reduction in protein level at 5 uM measured upto 72 hrs by Western blot analysis; assay type: cell-based
[5] = biological target: T1, Protein cereblon/B-cell lymphoma 6 protein; experiment: In vivo PROTAC activity at CRBN/BCL6 in female nude nu/nu mouse model xenografted with human SU-DHL-4 cells assessed as increase in p21 protein level in tumor at 40 mg/kg, ip measured after 5 hrs of last dose by Western blot analysis; assay type: functional, organism-based; details: SUD4
[6] = biological target: T1, Protein cereblon/B-cell lymphoma 6 protein; experiment: PROTAC activity at CRBN/BCL6 in human SU-DHL-4 cells assessed as reduction in half life BCL6 at 1 uM preincubated with compound for 24 hrs followed by CHX addition and measured after 4 hrs by Western blot analysis; assay type: cell-based; details: time 28.0 hrs
[7] = Tmax in male Sprague-Dawley rat at 20 mg/kg, po measured upto 24 hrs by LC-MS/MS analysis; assay type: ADME, organism-based; details: in vivo
[8] = tested on: DOHH-2; experiment: Induction of cell cycle arrest in human DOHH-2 cells assessed as G1 phase arrest at 500 nM in presence of Ibrutinib incubated for 72 hrs by flow cytometry; assay type: functional, cell-based
[9] = tested on: DOHH-2; experiment: Synergistic antiproliferative activity against human DOHH-2 cells assessed as combination index measured after 6 days in presence of Ibrutinib by MTT assay; assay type: functional; details: time 6 day
[10] = tested on: WI-38 VA13; experiment: (§1) Cytotoxicity against human WI-38 VA13 cells assessed as inhibition in cell growth measured after 6 days by MTT assay; assay type: toxicity, cell-based; details: wi-38 va13, 144 h, time 6 day
[11] = as §1; assay type: toxicity, cell-based; details: WI-38 VA13 cells
[12] = biological target: T1, Protein cereblon/B-cell lymphoma 6 protein; experiment: PROTAC activity at CRBN/BCL6 in human SU-DHL-4 cells assessed as induction of BCL6 degradation by measuring maximal efficacy incubated for 48 hrs by Western blot analysis relative to control; assay type: cell-based
[13] = tested on: SUD4; experiment: Upregulation of p27 protein level in human SU-DHL-4 cells at 5 uM by Western blot analysis; assay type: functional, cell-based; details: time 12-72 hrs, TDE = time-dependent effect
[14] = biological target: T1, Protein cereblon/B-cell lymphoma 6 protein; experiment: PROTAC activity at CRBN/BCL6 in human SU-DHL-4 cells assessed as induction of BCL6 degradation at 5 uM preincubated with MG-132 for 2 hrs followed by compound addition and measured after 36 hrs by Western blot analysis; assay type: cell-based
[15] = AUC (0 to t) in male Sprague-Dawley rat at 10 mg/kg, ip measured upto 24 hrs by LC-MS/MS analysis; assay type: ADME, organism-based; details: in vivo
[16] = tested on: SUD4; experiment: Upregulation of p21 protein level in human SU-DHL-4 cells incubated for 48 hrs by Western blot analysis; assay type: functional, cell-based; details: dose 0.1-10 µM
[17] = tested on: SUD4; experiment: Antiproliferative activity against BCL6-dependent human SU-DHL-4 cells assessed as inhibition of cell growth at 1 uM measured after 6 days by MTT assay relative to control; assay type: functional; details: SU-DHL-4, 144 h, time 6 day
[18] = biological target: T1, Protein cereblon/B-cell lymphoma 6 protein; experiment: PROTAC activity at CRBN/BCL6 in human DOHH-2 cells assessed as induction of BCL6 degradation incubated for 48 hrs by Western blot analysis; assay type: cell-based
[19] = Half life in male Sprague-Dawley rat at 10 mg/kg, ip measured upto 24 hrs by LC-MS/MS analysis; assay type: ADME, organism-based; details: in vivo
[20] = AUC (0 to t) in male Sprague-Dawley rat at 20 mg/kg, po measured upto 24 hrs by LC-MS/MS analysis; assay type: ADME, organism-based; details: in vivo
[21] = Resistance index, ratio of IC50 for human DOHH2/Ib cells to IC50 for DOHH2 cells; assay type: functional
[22] = tested on: SUD4; experiment: Induction of cell cycle arrest in human SU-DHL-4 cells assessed as G1 phase arrest at 500 nM in presence of Ibrutinib incubated for 72 hrs by flow cytometry; assay type: functional, cell-based
[23] = biological target: T1, Protein cereblon/B-cell lymphoma 6 protein; experiment: PROTAC activity at CRBN/BCL6 in BCL6-dependent human SU-DHL-4 cells assessed as induction of BCL6 degradation by measuring degradation rate at 1 uM incubated for 48 hrs by Western blot analysis relative to control; assay type: cell-based
[24] = tested on: SUD4; experiment: Induction of apoptosis in human SU-DHL-4 cells at 10 uM; assay type: functional, cell-based
[25] = tested on: SUD4; experiment: Upregulation of p27 protein level in human SU-DHL-4 cells incubated for 48 hrs by Western blot analysis; assay type: functional, cell-based; details: dose 0.1-10 µM
[26] = Antitumor activity against human SU-DHL-4 cells xenografted in female nude nu/nu mouse assessed as tumor growth inhibition at 40 mg/kg, ip measured after 21 days by microcaliper based analysis relative to control; assay type: functional, SUD4; details: SU-DHL-4, 504 h, time 21 day, read-out: TGI
[27] = biological target: T1, Protein cereblon/B-cell lymphoma 6 protein; experiment: PROTAC activity at CRBN/BCL6 in human SU-DHL-4 cells assessed as induction of BCL6 degradation incubated for 48 hrs by Western blot analysis; assay type: cell-based
[28] = Antitumor activity against human SU-DHL-4 cells xenografted in female nude nu/nu mouse assessed as tumor growth inhibition at 20 mg/kg, ip measured after 21 days by microcaliper based analysis relative to control; assay type: functional, SUD4; details: SU-DHL-4, 504 h, time 21 day, read-out: TGI
[29] = tested on: SUD4; experiment: Synergistic antiproliferative activity against human SU-DHL-4 cells assessed as combination index measured after 6 days in presence of Ibrutinib by MTT assay; assay type: functional; details: time 6 day
[30] = Cmax in male Sprague-Dawley rat at 20 mg/kg, po measured upto 24 hrs by LC-MS/MS analysis; assay type: ADME, organism-based; details: in vivo
[31] = tested on: SUD4; experiment: Upregulation of CDKN1B mRNA level in human SU-DHL-4 cells at 10 uM incubated for 48 hrs by RT-qPCR analysis; assay type: functional, cell-based
[32] = AUC (0 to infinity) in male Sprague-Dawley rat at 20 mg/kg, po measured upto 24 hrs by LC-MS/MS analysis; assay type: ADME, organism-based; details: in vivo
[33] = tested on: Ibrutinib resistant DOHH2 cell; experiment: Upregulation of p21 protein level in human Ibrutinib resistant DOHH2 cells at 0.1 to 10 uM incubated for 48 hrs by Western blot analysis; assay type: functional, cell-based; details: dose 0.1-10 µM
[34] = tested on: SUD4; experiment: Induction of cell cycle arrest in human SU-DHL-4 cells assessed as increase in G1 phase cell population at 10 uM measured after 72 hrs by flow cytometry analysis (reference value: 61.4%); assay type: functional
[35] = tested on: OCI-Ly1; experiment: Antiproliferative activity against BCL6-dependent human OCI-Ly1 cells assessed as inhibition in cell growth measured after 6 days by MTT assay; details: OCI-Ly1, 144 h
[36] = Toxicity in female nude nu/nu mouse model xenografted with human SU-DHL-4 cells assessed as body weight loss at 10 to 40 mg/kg, ip measured after 21 days; assay type: organism-based, SUD4; details: in vivo, 504 h, dose 10-40 mg/kg, time 21 day
[37] = Cmax in male Sprague-Dawley rat at 10 mg/kg, ip measured upto 24 hrs by LC-MS/MS analysis; assay type: ADME, organism-based; details: in vivo

T1 sequence (Q96SW2 whole entry, looked up, other chains not shown): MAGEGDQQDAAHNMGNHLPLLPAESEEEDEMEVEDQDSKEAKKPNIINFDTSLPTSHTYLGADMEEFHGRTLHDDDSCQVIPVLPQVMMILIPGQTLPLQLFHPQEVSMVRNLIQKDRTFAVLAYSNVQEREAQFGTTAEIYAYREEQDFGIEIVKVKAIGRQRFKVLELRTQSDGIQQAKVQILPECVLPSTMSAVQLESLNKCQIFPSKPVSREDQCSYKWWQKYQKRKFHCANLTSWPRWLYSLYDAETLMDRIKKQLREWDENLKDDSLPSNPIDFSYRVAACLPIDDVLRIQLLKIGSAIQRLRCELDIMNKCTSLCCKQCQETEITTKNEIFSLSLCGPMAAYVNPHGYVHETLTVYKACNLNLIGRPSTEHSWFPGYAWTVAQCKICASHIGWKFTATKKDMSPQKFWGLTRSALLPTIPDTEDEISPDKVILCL

## COc1cc(Nc2nc(N3CCN(CCOCCNc4cccc5c4C(=O)N(C4CCC(=O)NC4=O)C5=O)CC3)ncc2F)ccc1NC(=O)c1ccc(C2=CCCC2)s1 (centres undefined)
[1]
  half-life: 1.06 h
[2]
  Activity: inactive
[3]
  IC50: 56.2 nM
[4]
  Activity: Active
[5]
  Activity: Active
[6]
  Activity: Active
[7]
  Tmax: 1 h
[8]
  Activity: Active
[9]
  CI: 0.2
[10]
  Activity: Dose-Dependent Effect
[11]
  IC50 at 6 days: > 10000 nM
[12]
  Emax: 93%
[13]
  Activity: Tde
[14]
  Activity: inactive
[15]
  AUC(0-t) at 24 h: 33800 ng·h/mL
[16]
  Activity: Dose-Dependent Effect
[17]
  inhibition at 1 µM: 66.1%
[18]
  Activity: Dose-Dependent Effect
  DC50: 558 nM
[19]
  half-life: 2.59 h
[20]
  AUC(0-t) at 24 h: 2290 ng·h/mL
[21]
  Ratio IC50: 31.7
[22]
  Activity: Active
[23]
  Activity: 81.8%
[24]
  Activity: inactive
[25]
  Activity: Dose-Dependent Effect
[26]
  inhibition in vivo at 40 mg/kg: 71.8%
[27]
  Activity: Dose-Dependent Effect
  DC50: 676 nM
[28]
  inhibition in vivo at 20 mg/kg: 47.4%
[29]
  CI: 0.5
[30]
  Cmax: 703 ng/mL
[31]
  Activity: Active
[32]
  AUC(0-inf): 2330 ng·h/mL
[33]
  Activity: Active
[34]
  Activity: 93.3%
[35]
  IC50: 1370 nM
[36]
  Activity: Non-Toxic
[37]
  Cmax: 3820 ng/mL
